Source: patent US9067898B1, “Isothiazole derivatives as GPR120 agonists for the treatment of type II diabetes” (Janssen Pharmaceutica NV, priority 2014, dated 2015)

System: C57B16 mice on a high fat diet (DIO)
Assay: GPR120 DIO mice OGTT screening
Assay type: in vivo, mouse
Set-up: DIO Lowering Glucose AUC (−30 to 90) @ 10 mg/kg: unit not given here
Conditions: 10 mg/kg dosed 30 min before PO glucose, change from vehicle
Method: 18-22 week old, C57B16 mice on a high fat diet (60% HFD) for 12-16 weeks (ave. body weight ˜37-41 g) were fasted for 6 hr, with removal of food occurring at 7 am on the morning of the study. The animals were sorted into treatment groups the day before the study by body weight. Animals outside the bounds of ˜30-50 g were left out of the study. The animals had been handled and shammed a total of 5-8 days (1-3 days immediately prior to the study). Glucose (in 1 mL syringes) was drawn up the morning of the study. Test compounds were kept spinning and were only drawn into 1 ml syringes prior to study commencement. Animals were bled via tail snip to determine basal glucose levels prior to dosing of treatments. An Ascensia BREEZE Blood Glucose Monitoring System by Bayer was used for determining glucose levels.
Animals were moved into the testing room at ˜9-11 am, to yield them time to acclimate. The bleeds and dosing started at approximately 1 pm in 30-second intervals per animal. All groups were dosed 30 minutes prior to glucose administration at a dose volume of 10 ml/kg (the dose volume was calculated separately for each individual animal). Test compounds were administered at one or more of the following dosages: 0.1 mg/kg, 0.3 mg/kg, 1 mg/kg, 3 mg/kg and 10 mg/kg.
Thirty minutes after the first dose (with test compound) animals were bled again for a second baseline, or T=0, and immediately dosed with glucose (20% solution; TEKNOVA, 250 ml sterile bottle w/catalogue number G0525) via a PO injection. The exact dose volume for glucose was also calculated separately for each individual animal.
Blood glucose was measured at 15, 30, 45, 60, and 90 minutes post-glucose administration via the snipped tail. If an animal reached a value of “HI”, the upper limit of the glucometer (600 mg/dl) was substituted as the blood glucose value and the study was analyzed as normal with no exclusions. If 50% or more of any treatment group reaches a “HI” value at least once, the study was considered invalid and repeated. Glucose values were typed into an EXCEL spreadsheet where they were used to calculate glucose AUC and delta AUC post-compound and post-glucose. The glucose excursion curves and the different versions of the AUC's were graphed in GraphPad Prism 5.
Note: All statistics completed in this study were completed using the statistical software package GraphPad Prism 5. Standard procedures for analyzing data sets from screening GPR120 compounds in DIO mouse OGTT's were as listed here below. In addition to the statistics that were run using GraphPad Prism 5, Microsoft Excel was used to calculate the percent changes in AUC from vehicle groups as detailed below.
Change from −30 to 0 BSLN Glucose, Raw Glucose AUC −30 to 90 min, Delta Glucose AUC −30 to 90 min, Raw Glucose AUC 0 to 90 min, Delta Glucose AUC 0 to 90 min were analyzed using Column Statistics Analysis, with mean values used to calculate % change from the vehicle mean group, as well as mean, SEM and/or % change from vehicle, where appropriate; and using One-Way ANOVA w/a Tukey Post-Test (Comparing All Pairs of Columns) with each treatment group examined to see if it was statistically significant compared to vehicle (*=P<0.05, **=P<0.01, ***=P<0.001).
Representative compounds of the present invention were tested according to the procedure as described in Biological Example 3, with results as listed in Table 2, below. Where a compound was tested more than once, each result is listed individually.

Molecule | DIO Lowering Glucose AUC (−30 to 90) @ 10 mg/kg
CCc1ccc(-c2nsc(C(F)(F)F)c2COc2ccc(CCC(=O)O)c(F)c2F)cc1 [Cpd 73, 3-(4-((3-(4-ethylphenyl)-5-(trifluoromethyl)isothiazol-4-yl)methoxy)-2,3-difluorophenyl)propanoic acid] | −0.51
3-(4-[[3-(4-ethylphenyl)-5-(trifluoromethyl)-1,2-thiazol-4-yl]methoxy]-3,5-difluorophenyl)propanoic acid [Cpd 70] | −0.5
O=C(O)CCc1cc(F)c(OCc2c(-c3ccc(Cl)cc3F)nsc2C(F)(F)F)c(F)c1 [Cpd 74, 3-(4-((3-(4-chloro-2-fluorophenyl)-5-(trifluoromethyl)isothiazol-4-yl)methoxy)-3,5-difluorophenyl)propanoic acid] | −0.71
O=C(O)CCc1cc(F)c(OCc2c(-c3ccc(Cl)c(F)c3)nsc2C(F)(F)F)c(F)c1 [Cpd 67, 3-(4-((3-(4-chloro-3-fluorophenyl)-5-(trifluoromethyl)isothiazol-4-yl)methoxy)-3,5-difluorophenyl)propanoic acid] | −0.78
O=C(O)CCc1cc(F)c(OCc2c(C3CCCC3)nsc2C(F)(F)F)c(F)c1 [Cpd 71, 3-(4-[[3-cyclopentyl-5-(trifluoromethyl)-1,2-thiazol-4-yl]methoxy]-3,5-difluorophenyl)propanoic acid] | −0.52
Cc1ccc(-c2nsc(C(F)(F)F)c2COc2c(F)cc(CC(C)C(=O)O)cc2F)c(F)c1 (stereo not shown) [Cpd 76, 3-(3,5-difluoro-4-[[3-(2-fluoro-4-methylphenyl)-5-(trifluoromethyl)-1,2-thiazol-4-yl]methoxy]phenyl)-2-methylpropanoic acid] | −0.8
Cc1ccc(-c2nsc(C(F)(F)F)c2COc2c(F)cc(CCC(=O)O)cc2F)c(F)c1 [Cpd 65, 3-(3,5-difluoro-4-[[3-(2-fluoro-4-methylphenyl)-5-(trifluoromethyl)-1,2-thiazol-4-yl]methoxy]phenyl)propanoic acid] | −0.61

Same assay, conditions: Mus musculus, read-out: DIO Lowering Glucose AUC (−30 to 90) @ 10 mg/kg, heading: DIO Lowering Glucose AUC @ 10 mg/kg, 10 mg/kg dosed 30 min before PO glucose, change from vehicle

Molecule | change in vivo at 10 mg/kg [%]
CCc1ccc(-c2cc(F)sc2COc2ccc(CCC(=O)O)c(C)c2C)cc1 [Cpd 1, 3-(4-[[3-(4-ethylphenyl)-5-fluorothiophen-2-yl]methoxy]-2,3-dimethylphenyl)propanoic acid] | -26
Cc1c(CCC(=O)O)ccc(OCc2sc(F)cc2-c2ccc(Cl)cc2)c1C [Cpd 3, 3-(4-((3-(4-chlorophenyl)-5-fluorothiophen-2-yl)methoxy)-2,3-dimethylphenyl)propanoic acid] | -49

System: C57bl/6J mice
Assay: GPR120 C57bl6 mouse IPGTT
Assay type: in vivo
Conditions: 10 mg/kg dosed 30 min before glucose IP 1.5 g/kg
Method: Male, C57bl/6J Mice were ordered in at 8 weeks of age from Jackson Labs. Individual mice weighed anywhere in the range of 25-30 grams on study day. The mice were fasted, with removal of food occurring at 7 am on the morning of the study. Animals were moved into the room at 10:00 am, to give them time to acclimate. Glucose (insulin syringes) was drawn up either the night before or the morning of the study. Glucose was dosed (IP) at 1.5 g/kg at 7.5 ml/kg (20% glucose straight TEKNOVA, 250 ml sterile bottle w/catalogue number G0525). Test compounds were kept spinning and were only drawn into the syringes prior to study commencement. Animals were bled via tail snip to determine basal glucose levels prior to dosing of treatments. An Ascensia BREEZE Blood Glucose Monitoring System by Bayer (using unique 10-test disks) was used for determining glucose levels. The bleeds started at approximately 12:45 pm and dosing started, at 1-minute intervals, immediately after. All groups were dosed 30 minutes prior to glucose administration at a dose volume of 10 ml/kg (the dose volume was calculated separately for each individual animal). Thirty minutes after the first dose animals were bled again for a second baseline, or T=0, and immediately dosed with glucose via an i.p. injection. The exact dose volume for glucose was also calculated separately for each individual animal. […]

Molecule | C57 IPGTT 10 mg/kg
3-(4-[[3-(4-ethylphenyl)-5-(trifluoromethyl)-1,2-thiazol-4-yl]methoxy]-1-benzothiophen-7-yl)propanoic acid [Cpd 92] | −41
